From ChEMBL document CHEMBL1141862, “Pyrimido-oxazepine as a versatile template for the development of inhibitors of specific kinases” (Bioorg Med Chem Lett, 2005)
pIC50: −log10 of the molar value. Activity calls are given as the source filed them. The rule behind the calls is not given here.

Tests used:
[1] = molecular target: T1, Aurora kinase A (Homo sapiens, UniProt O14965); assay: Inhibitory activity against Aurora A kinase
T1 sequence (O14965 whole entry): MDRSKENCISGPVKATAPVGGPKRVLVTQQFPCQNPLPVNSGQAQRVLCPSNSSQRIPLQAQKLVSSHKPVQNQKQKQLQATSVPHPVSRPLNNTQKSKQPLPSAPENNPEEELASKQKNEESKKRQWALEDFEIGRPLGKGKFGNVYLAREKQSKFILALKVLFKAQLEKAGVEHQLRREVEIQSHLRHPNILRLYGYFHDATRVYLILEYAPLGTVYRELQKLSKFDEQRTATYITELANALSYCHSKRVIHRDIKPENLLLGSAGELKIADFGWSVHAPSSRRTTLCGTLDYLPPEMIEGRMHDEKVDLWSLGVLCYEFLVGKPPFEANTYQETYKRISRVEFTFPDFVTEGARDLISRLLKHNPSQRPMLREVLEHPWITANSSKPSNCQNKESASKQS

[2] = molecular target: T2, Receptor-type tyrosine-protein kinase FLT3 (Homo sapiens, UniProt P36888); assay: Inhibitory activity against FLT3 kinase in a HTRF assay
T2 sequence (P36888 whole entry): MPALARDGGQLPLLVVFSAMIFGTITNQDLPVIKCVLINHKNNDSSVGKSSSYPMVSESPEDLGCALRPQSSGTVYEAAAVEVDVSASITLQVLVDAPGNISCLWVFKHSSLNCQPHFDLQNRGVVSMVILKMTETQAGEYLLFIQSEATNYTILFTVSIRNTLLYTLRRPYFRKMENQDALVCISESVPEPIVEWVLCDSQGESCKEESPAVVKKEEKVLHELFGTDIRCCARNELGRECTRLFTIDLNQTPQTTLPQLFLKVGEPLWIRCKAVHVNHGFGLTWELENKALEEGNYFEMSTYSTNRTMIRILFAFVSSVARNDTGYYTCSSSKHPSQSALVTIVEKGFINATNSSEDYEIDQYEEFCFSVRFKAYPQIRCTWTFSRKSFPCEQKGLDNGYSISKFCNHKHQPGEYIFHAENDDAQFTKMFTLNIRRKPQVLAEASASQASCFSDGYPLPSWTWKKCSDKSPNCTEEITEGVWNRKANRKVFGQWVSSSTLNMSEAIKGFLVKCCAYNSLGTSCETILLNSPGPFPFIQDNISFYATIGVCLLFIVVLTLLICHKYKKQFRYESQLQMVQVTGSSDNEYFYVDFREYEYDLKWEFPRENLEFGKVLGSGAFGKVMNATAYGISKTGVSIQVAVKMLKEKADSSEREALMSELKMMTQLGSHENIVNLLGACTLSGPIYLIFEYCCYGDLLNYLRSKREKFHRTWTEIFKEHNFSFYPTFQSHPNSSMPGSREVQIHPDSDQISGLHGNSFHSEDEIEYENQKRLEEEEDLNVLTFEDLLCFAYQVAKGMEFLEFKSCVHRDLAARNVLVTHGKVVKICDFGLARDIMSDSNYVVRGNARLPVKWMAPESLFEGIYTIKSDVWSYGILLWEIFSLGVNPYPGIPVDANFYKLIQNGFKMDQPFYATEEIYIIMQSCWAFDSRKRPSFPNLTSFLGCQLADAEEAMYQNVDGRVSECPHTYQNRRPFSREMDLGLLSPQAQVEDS

[3] = molecular target: Insulin-like growth factor 1 receptor (Homo sapiens) (UniProt P08069); assay: Inhibitory activity against IGF1R at 25 uM
[4] = molecular target: Hepatocyte growth factor receptor (Homo sapiens) (UniProt P08581); assay: Inhibitory activity against c-Met at 25 uM
[5] = molecular target: Epidermal growth factor receptor (Homo sapiens) (UniProt P00533); assay: Inhibitory activity against EGFR at 25 uM
[6] = molecular target: T3, Cytoplasmic tyrosine-protein kinase BMX (Homo sapiens) (UniProt P51813); assay: Inhibitory activity against ETK at 25 uM
T3 sequence (whole entry): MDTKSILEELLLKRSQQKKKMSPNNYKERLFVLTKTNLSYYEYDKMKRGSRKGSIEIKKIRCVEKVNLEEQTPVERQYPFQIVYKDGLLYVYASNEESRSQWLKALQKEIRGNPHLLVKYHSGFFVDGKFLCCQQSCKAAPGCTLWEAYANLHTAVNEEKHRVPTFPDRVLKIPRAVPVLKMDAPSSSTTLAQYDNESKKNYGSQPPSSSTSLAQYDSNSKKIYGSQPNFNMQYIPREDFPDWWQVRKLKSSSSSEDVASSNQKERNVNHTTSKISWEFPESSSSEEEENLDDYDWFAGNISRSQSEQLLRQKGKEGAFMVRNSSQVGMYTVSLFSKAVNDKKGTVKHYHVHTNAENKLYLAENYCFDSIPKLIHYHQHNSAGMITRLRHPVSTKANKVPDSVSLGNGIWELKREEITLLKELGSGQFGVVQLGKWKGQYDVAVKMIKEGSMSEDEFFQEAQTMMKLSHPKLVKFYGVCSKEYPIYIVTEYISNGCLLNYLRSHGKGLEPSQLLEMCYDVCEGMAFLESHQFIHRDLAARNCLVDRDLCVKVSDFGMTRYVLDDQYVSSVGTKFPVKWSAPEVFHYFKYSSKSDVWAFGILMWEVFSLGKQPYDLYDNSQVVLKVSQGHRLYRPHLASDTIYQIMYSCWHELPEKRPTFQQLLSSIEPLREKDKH

[7] = molecular target: Insulin receptor (Homo sapiens, UniProt P06213); assay: Inhibitory activity against IR
[8] = molecular target: Fibroblast growth factor receptor 1 (Homo sapiens) (UniProt P11362); assay: Inhibitory activity against FGF1R at 25 uM
[9] = molecular target: Vascular endothelial growth factor receptor 2 (Homo sapiens, UniProt P35968); assay: Inhibitory activity against KDR
[10] = molecular target: Vascular endothelial growth factor receptor 1 (Homo sapiens) (UniProt P17948); assay: Inhibitory activity against FLT1 at 25 uM

Sequence of Epidermal growth factor receptor (Homo sapiens) (P00533 whole entry): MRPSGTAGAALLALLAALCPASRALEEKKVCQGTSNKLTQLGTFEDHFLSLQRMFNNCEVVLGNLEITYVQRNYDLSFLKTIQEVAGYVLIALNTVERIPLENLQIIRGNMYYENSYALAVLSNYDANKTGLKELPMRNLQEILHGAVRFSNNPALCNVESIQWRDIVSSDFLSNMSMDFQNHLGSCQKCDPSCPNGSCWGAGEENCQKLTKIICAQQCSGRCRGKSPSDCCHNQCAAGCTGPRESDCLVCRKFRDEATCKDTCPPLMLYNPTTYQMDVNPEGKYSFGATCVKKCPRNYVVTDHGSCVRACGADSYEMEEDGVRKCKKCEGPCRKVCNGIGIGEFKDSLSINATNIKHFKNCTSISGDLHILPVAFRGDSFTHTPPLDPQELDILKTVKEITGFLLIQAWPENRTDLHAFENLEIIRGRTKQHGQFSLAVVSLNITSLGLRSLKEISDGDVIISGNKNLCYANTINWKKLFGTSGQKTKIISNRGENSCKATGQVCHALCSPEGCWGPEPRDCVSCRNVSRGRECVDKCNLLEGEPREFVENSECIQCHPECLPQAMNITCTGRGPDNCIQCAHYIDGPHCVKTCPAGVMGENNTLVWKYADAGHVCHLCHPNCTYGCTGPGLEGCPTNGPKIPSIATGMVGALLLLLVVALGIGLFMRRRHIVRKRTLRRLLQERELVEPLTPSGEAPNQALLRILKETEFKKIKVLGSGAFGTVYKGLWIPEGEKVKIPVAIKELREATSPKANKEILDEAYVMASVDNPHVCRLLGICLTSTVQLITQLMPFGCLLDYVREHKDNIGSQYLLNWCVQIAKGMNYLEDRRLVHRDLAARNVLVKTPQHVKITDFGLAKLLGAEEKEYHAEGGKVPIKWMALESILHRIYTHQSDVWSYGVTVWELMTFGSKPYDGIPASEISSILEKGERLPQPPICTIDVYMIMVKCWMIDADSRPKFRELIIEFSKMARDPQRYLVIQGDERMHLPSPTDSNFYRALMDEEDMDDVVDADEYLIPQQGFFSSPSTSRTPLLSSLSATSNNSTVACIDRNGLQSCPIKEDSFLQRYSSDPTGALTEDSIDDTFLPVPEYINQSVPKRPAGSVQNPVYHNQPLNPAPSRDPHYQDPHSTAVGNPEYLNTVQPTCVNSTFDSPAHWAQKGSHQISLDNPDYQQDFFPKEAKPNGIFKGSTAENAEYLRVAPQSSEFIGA
Sequence of Vascular endothelial growth factor receptor 2 (P35968 whole entry): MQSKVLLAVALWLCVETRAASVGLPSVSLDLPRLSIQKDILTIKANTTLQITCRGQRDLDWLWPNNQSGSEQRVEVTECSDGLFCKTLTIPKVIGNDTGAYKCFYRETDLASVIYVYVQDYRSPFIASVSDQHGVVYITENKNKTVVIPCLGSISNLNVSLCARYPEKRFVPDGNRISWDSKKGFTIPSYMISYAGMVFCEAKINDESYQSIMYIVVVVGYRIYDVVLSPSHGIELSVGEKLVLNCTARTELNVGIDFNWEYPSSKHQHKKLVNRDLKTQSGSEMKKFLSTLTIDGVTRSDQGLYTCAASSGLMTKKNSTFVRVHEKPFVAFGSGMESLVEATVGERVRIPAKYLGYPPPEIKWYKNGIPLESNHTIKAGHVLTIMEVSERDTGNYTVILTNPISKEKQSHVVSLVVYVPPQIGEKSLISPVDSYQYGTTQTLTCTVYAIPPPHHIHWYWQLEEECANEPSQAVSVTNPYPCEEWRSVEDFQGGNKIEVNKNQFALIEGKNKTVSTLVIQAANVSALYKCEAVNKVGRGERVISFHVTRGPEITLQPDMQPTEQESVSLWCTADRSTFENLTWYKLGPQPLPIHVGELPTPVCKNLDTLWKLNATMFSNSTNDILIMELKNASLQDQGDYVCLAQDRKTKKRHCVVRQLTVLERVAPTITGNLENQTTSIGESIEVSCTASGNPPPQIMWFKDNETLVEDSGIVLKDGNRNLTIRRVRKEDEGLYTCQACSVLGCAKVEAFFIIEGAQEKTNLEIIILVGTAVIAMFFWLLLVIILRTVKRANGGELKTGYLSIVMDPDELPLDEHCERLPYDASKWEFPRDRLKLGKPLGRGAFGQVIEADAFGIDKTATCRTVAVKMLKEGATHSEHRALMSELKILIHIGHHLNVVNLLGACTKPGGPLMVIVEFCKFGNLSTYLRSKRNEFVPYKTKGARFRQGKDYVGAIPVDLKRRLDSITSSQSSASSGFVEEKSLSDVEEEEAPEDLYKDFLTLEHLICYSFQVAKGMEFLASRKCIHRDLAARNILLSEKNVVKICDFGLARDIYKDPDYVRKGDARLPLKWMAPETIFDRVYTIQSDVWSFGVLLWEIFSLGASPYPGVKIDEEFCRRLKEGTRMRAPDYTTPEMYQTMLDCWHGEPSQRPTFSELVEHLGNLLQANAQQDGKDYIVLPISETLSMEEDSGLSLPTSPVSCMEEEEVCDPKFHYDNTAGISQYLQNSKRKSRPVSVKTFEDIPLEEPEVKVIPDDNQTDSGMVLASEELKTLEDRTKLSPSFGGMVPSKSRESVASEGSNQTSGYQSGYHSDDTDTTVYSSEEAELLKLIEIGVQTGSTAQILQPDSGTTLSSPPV
Sequence of Insulin receptor (P06213 28-758 limits assumed): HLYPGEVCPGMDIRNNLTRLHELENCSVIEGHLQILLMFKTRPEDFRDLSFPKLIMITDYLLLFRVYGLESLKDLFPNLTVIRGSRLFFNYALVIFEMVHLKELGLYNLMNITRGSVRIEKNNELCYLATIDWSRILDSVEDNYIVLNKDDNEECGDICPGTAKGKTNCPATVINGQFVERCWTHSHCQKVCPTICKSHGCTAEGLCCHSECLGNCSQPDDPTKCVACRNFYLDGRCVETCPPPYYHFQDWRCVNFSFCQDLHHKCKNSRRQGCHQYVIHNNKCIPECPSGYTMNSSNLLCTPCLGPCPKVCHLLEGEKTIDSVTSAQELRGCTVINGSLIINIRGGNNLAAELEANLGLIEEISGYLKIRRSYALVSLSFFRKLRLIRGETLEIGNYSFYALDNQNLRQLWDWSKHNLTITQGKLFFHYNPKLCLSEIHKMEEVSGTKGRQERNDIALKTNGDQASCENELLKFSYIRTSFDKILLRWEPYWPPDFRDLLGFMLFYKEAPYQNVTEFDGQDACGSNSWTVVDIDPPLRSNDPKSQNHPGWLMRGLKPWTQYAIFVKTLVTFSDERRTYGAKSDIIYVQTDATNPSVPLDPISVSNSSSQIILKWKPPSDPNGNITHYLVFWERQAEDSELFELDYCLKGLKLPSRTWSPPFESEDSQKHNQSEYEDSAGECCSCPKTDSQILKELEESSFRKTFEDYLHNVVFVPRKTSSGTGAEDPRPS
Sequence of Insulin receptor (P06213 763-1382 limits assumed): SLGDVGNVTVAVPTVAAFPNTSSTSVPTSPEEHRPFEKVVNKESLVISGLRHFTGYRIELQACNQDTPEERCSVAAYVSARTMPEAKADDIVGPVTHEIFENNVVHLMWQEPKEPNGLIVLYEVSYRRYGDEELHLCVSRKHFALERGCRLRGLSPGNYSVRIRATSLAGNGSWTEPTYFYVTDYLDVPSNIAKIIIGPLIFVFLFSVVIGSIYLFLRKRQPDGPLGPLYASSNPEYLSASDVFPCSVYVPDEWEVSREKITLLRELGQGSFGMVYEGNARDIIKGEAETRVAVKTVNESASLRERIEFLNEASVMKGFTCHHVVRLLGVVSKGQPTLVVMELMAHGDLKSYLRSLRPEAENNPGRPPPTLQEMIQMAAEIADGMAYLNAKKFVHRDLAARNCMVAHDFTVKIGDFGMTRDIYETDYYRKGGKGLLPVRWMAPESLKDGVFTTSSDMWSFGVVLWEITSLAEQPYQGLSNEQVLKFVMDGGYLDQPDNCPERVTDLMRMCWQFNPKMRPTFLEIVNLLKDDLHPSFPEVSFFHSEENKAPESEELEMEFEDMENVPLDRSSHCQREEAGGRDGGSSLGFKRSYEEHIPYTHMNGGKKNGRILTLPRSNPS
Sequence of Fibroblast growth factor receptor 1 (Homo sapiens) (P11362 22-822 limits assumed): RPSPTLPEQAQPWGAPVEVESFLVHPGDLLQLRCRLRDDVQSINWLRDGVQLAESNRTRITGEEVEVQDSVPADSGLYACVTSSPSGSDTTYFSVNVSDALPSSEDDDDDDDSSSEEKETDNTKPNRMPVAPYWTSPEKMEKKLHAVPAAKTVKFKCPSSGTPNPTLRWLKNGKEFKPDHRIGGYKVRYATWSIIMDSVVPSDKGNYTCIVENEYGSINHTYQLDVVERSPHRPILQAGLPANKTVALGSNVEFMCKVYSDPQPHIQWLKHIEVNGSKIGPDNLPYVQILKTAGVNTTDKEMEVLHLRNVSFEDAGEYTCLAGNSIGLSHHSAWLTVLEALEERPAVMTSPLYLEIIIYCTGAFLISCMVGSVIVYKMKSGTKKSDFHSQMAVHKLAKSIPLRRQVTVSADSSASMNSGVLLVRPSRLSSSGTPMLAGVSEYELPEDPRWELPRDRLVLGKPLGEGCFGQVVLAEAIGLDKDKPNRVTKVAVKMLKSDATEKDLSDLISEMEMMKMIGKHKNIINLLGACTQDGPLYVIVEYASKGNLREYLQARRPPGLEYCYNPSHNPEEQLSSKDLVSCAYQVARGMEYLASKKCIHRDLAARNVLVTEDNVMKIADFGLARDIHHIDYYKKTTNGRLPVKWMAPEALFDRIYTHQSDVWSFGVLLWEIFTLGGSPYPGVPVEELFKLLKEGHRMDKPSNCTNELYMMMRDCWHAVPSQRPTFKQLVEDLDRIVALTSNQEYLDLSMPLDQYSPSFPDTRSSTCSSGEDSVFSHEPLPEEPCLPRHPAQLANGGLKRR

Compound | pIC50 [1] | also measured
COc1ccc2c(c1)CNc1c(Nc3cnc(NC(=O)c4ccc(C)cc4)nc3)ncnc1O2 | 5.46 | –
COc1cccc2c1Oc1ncnc(Nc3cnc(NC(=O)c4ccccc4)nc3)c1NC2 | < 5.00 | –
O=C(Nc1ccc2c(c1)CNc1c(Cl)ncnc1O2)Nc1ccc(Cl)c(C(F)(F)F)c1 | – | pIC50 [2]: 4.86
O=C(Nc1ccc2c(c1)CNc1cnc(Cl)nc1O2)Nc1ccc(Cl)c(C(F)(F)F)c1 | – | pIC50 [2]: 6.05
CCN(CC)c1ccc2c(c1)Oc1ncnc(Nc3cnc(NC(=O)c4ccccc4)nc3)c1NC2 | 5.30 | –
O=C(Nc1ccc2c(c1)C=Nc1c(Cl)ncnc1O2)Nc1ccc(Cl)c(C(F)(F)F)c1 | – | Activity [3]: inactive; pIC50 [2]: 6.35; Activity [4]: inactive; Activity [5]: inactive; Activity [6]: inactive; pIC50 [7]: 5.02; Activity [8]: inactive; pIC50 [9]: 5.02; Activity [10]: inactive
Cc1ccc(C(=O)Nc2ncc(Nc3ncnc4c3NCc3ccccc3O4)cn2)cc1 | 5.43 | –

Second part, led by results:

pIC50 [1] | Compound | also measured
5.96 | COc1ccc2c(c1)CNc1c(Nc3cnc(NC(=O)c4cccc(F)c4)nc3)ncnc1O2 | –
6.01 | COc1ccc2c(c1)CNc1c(Nc3cnc(NC(=O)c4ccccc4)nc3)ncnc1O2 | –
5.66 | COc1cccc2c1CNc1c(Nc3cnc(NC(=O)c4ccccc4)nc3)ncnc1O2 | –
5.92 | COc1cc2c(cc1OC)Oc1ncnc(Nc3cnc(NC(=O)c4ccc(C)cc4)nc3)c1NC2 | –
6.48 | COc1ccc2c(c1)Oc1ncnc(Nc3cnc(NC(=O)c4ccc(F)cc4)nc3)c1NC2 | –
6.33 | COc1cc2c(cc1OC)Oc1ncnc(Nc3cnc(NC(=O)c4ccccc4)nc3)c1NC2 | –
5.72 | O=C(Nc1ncc(Nc2ncnc3c2NCc2ccccc2O3)cn1)c1ccccc1 | –
6.49 | COc1ccc2c(c1)Oc1ncnc(Nc3cnc(NC(=O)c4cccc(F)c4)nc3)c1NC2 | –
6.22 | COc1ccc2c(c1)Oc1ncnc(Nc3cnc(NC(=O)c4ccccc4)nc3)c1NC2 | –
5.96 | COc1cc2c(cc1OC)Oc1ncnc(Nc3cnc(NC(=O)c4cccc(F)c4)nc3)c1NC2 | –
